Series [1] can be described thus: Drug level using Birinapant assessed as compound formation by HPLC analysis. It counts as physicochemical.
The nature of series [2]: Drug degradation of the compound at 40 degC/75% RH measured after 1 year by HPLC analysis. It is filed as physicochemical. The conditions noted are these: read-out: Drug degradation.

Structures are written as SMILES. A value given as a limit tells only on which side of the number the result lay.

Turning to `CC[C@H](NC(=O)[C@H](C)NC)C(=O)N1C[C@@H](O)C[C@H]1Cc1c([C@@]2(C[C@@H]3C[C@H](O)CN3C(=O)[C@H](CC)NC(=O)[C@H](C)NC)Nc3cc(F)ccc3C2=O)[nH]c2cc(F)ccc12`, the Drug metabolism result in series [1] was “metabolite_detected”. On the same count and under the same terms, next, `CC[C@H](NC(=O)[C@H](C)NC)C(=O)N1C[C@@H](O)C[C@H]1Cc1c([C@]2(C[C@@H]3C[C@H](O)CN3C(=O)[C@H](CC)NC(=O)[C@H](C)NC)Nc3cc(F)ccc3C2=O)[nH]c2cc(F)ccc12`: “metabolite_detected”.

With `CC[C@H](NC(=O)[C@H](C)NC)C(=O)N1C[C@@H](O)C[C@H]1C[C@@]1(O)C(c2[nH]c3cc(F)ccc3c2C[C@H]2C[C@@H](O)CN2C(=O)[C@@H](CC)NC(=O)[C@@H](C)NC)=Nc2cc(F)ccc21`, in series [1], the Drug metabolism result is given as “metabolite_detected”. The same measure, in the same setting: under `CC[C@H](NC(=O)[C@H](C)NC)C(=O)N1C[C@@H](O)C[C@H]1C[C@]1(O)C(c2[nH]c3cc(F)ccc3c2C[C@H]2C[C@@H](O)CN2C(=O)[C@@H](CC)NC(=O)[C@@H](C)NC)=Nc2cc(F)ccc21` stands “metabolite_detected”. For the molecule `CC[C@H](NC(=O)[C@H](C)NC)C(=O)N1C[C@@H](O)C[C@H]1Cc1c(-c2[nH]c3cc(F)ccc3c2C[C@@H]2C[C@H](O)CN2C(=O)[C@H](CC)NC(=O)[C@H](C)NC)[nH]c2cc(F)ccc12` [BIRINAPANT], in series [2], the degraded at 8766 h is over 0.1%.

Source of the values: ChEMBL document CHEMBL3804787, “Electrophilic Oxidation and [1,2]-Rearrangement of the Biindole Core of Birinapant” (ACS Med Chem Lett, 2016).
